These results are taken from patent US7416840B2, “Replication of hepatitis C virus in non-hepatic epithelial and mouse hepatic cells” (priority 2002, dated 2008).

“Also recorded” adds a separate entry of the source. Like-named read-outs stand apart in the source and are kept apart here.

Data set [1] relates to IFN-α response against the HCV replicon. The format is cell-based, human. The following applies: for viral RNA levels versus cells treated with IFN-α alone: 5 μM lactacystin or 1 μM epoxomicin 1 h before IFN-α for 6 h, both time points; for IFN response against HCV when inhibitor is added after induction: IFN-α for 10 h, then inhibitor for 12 h; for reduction of HCV RNA levels by IFN-α in the presence of proteasome inhibitor: inhibitor 1 h before IFN-α 100 IU/ml for 6 h, then 12 h.

Data set [2] has as its system HCV subgenomic replicons. The format is cell-based.
The subject of data set [3] is HCV subgenomic replicons. The class given is cell-based. This is another data set of the same source.
The next data set relates to Mx-1 gene. The class given is cell-based, human. The settings on record: GS4.1 cells, with IFN-α.
The subject of a further data set is HCV. The following applies: HCV genotypes 2 and 3; cited from earlier work.
In another data set the test system is KUNCD20 cells. Put plainly: Cell death in IFN-α-treated KUNCD20 cells, light microscopy or annexin V staining. The format is cell-based, Homo sapiens (human). An excerpt: To address this problem, the IFN response against HCV in SL1 cells was compared with that against the flavivirus Kunjin virus in HeLa cells. For this purpose a pool of HeLa cells, KUNCD20, expressing Kunjin virus subgenomic replicons lacking the structural genes, similar to the HCV subgenomic replicons was established (Khromykh, A. A., and E. G. Westaway. 1997. J. Virol. 71:1497-1505). The Kunjin virus RNA levels in these cells were approximately fivefold higher than those observed with HCV in SL1 cells. […] Importantly, cell death in IFN-α-treated KUNCD20 cells was not detected either by light microscopy or annexin V staining (results not shown).

The next data set has as its system eIF-2α. The class given is cell-based, human. The following applies: Huh7, GS4.1, HeLa, SL1 cells; 100 IU of IFN-α/ml 12 h; poly(I:C) transfection 3 h.
A further data set deals with IFN-β gene. The class given is cell-based, human. The settings on record: for expression of IFN-β: IFN-α alone.
Another data set has as its system SL1 cells. The format is cell-based, Homo sapiens (human).
A further data set concerns Kunjin virus replicons. The class given is cell-based. The following applies: KUNCD20 cells, 0.01 to 160 IU of IFN-α/ml, 72 h.

In the case of `Nc1ncc2[nH]cnc2n1` [2-AP, 2-aminopurine], the “inhibition of the IFN-α response against HCV replicon” value (“inhibition of the IFN-α response” below) in data set [1] (GS4.1 (Huh7) cells) is given as “did not block the IFN response against HCV; also recorded: no measurable effect on the IFN response against the HCV replicon”. In the data set on HeLa cells (HeLa cells, treatment for more than 12 h), the apoptosis entry was “induced apoptosis”.
For `C[C@@]1(O)[C@H](O)[C@@H](CO)O[C@H]1n1cnc2c(N)ncnc21` [2CMA, 2′-C-methyladenosine], the “viral RNA (vRNA), anti-HCV activity” value in the data set on HCV subgenomic replicons [2] (GS4.1 (Huh7) cells, 10 μM, harvested at 6, 12, 24, 48, 72 hours) was “effectively inhibits HCV”; in the data set with HCV subgenomic replicons [3] (SL1 (HeLa) cells, 10 μM, harvested at 6, 12, 24, 48, 72 hours), “effectively inhibits HCV”.
With `Nc1nc(=O)n([C@@H]2O[C@H](CO)[C@@H](O)[C@H]2O)cc1O` [5-OH-cytidine], the “HCV RNA band intensity, antiviral activity” value with HCV subgenomic replicons [2] (GS4.1 (Huh7) cells, indicated amounts, 72 hours) is reported as “effectively inhibits HCV replication”; with HCV subgenomic replicons [3] (SL1 (HeLa) cells, indicated amounts, 72 hours), “effectively inhibits HCV replication”.
For `C[C@@H]1C[C@@H]([C@H](O)CC2CC(=O)NC(=O)C2)C(=O)[C@@H](C)C1` [Cycloheximide], the “inhibition of the IFN-α response” value in [1] (GS4.1 (Huh7) cells) is “decline of viral RNA levels was reduced”.
Regarding `CC[C@H](C)[C@H](NC(=O)[C@H]([C@@H](C)CC)N(C)C(C)=O)C(=O)N[C@H](C(=O)N[C@@H](CC(C)C)C(=O)[C@@]1(C)CO1)[C@@H](C)O` [Epoxomicin], in data set [1] (GS4.1 cells), the “viral RNA levels versus cells treated with IFN-α alone” value was “significantly higher”, the “IFN response against HCV when inhibitor is added after induction” value was “the IFN response against HCV remained effective” and the “reduction of HCV RNA levels by IFN-α in the presence of proteasome inhibitor” value is 30%. Moreover, the “induction of IFN-induced Mx-1 (Mx-A) mRNA” value (from here on “induction … (Mx-A) mRNA”) in the data set on Mx-1 gene is given as “did not inhibit induction of Mx-A”.
With `O=c1c(-c2ccc(O)cc2)coc2cc(O)cc(O)c12` [Genistein, genistein], in [1] (GS4.1 (Huh7) cells), the “inhibition of the IFN-α response” value is recorded as “antagonized the IFN-α response against the HCV replicon”. The “inhibition of the IFN response against HCV at increased drug concentration” value in data set [1] (GS4.1 cells, concentration raised from 100 to 300 μM) was “complete inhibition of the IFN response against HCV”. For the same compound, in the data set on Mx-1 gene, the “induction … (Mx-A) mRNA” value is listed as “suppressed the induction of the IFN-induced Mx-1 gene”.
With `CC(=O)N[C@@H](CSC(=O)[C@]1([C@@H](O)C(C)C)NC(=O)[C@H](C)[C@@H]1O)C(=O)O` [Lactacystin, lactacystin], the “HCV RNA levels, drug alone” value in the data set on HCV subgenomic replicons [2] (GS4.1 cells, higher doses, without IFN-α) is “slight reduction of HCV RNA levels”. In data set [1] (GS4.1 cells), the “viral RNA levels versus cells treated with IFN-α alone” value is “significantly higher”, the “IFN response against HCV when inhibitor is added after induction” value is “the IFN response against HCV remained effective” and the “reduction of HCV RNA levels by IFN-α in the presence of proteasome inhibitor” value was 30%. Moreover, the “induction … (Mx-A) mRNA” value with Mx-1 gene was “did not inhibit induction of Mx-A”.
With `C[S+]([O-])c1ccc(-c2nc(-c3ccncc3)c(-c3ccc(F)cc3)[nH]2)cc1` (stereo not shown) [SB 203580], the “inhibition of the IFN-α response” value in data set [1] (GS4.1 (Huh7) cells) is reported as “did not inhibit the IFN response at detectable levels”.
On to `O=C([O-])c1ccccc1O.[Na+]` [Sodium salicylate, sodium salicylate], for which the “inhibition of the IFN-α response” value in data set [1] was “did not inhibit the IFN response at detectable levels”.
For the compound IFN-α, the “drop of HCV RNA levels” value in the data set on HCV subgenomic replicons [2] (GS4.1 cells, IFN-α 100 IU/ml for 6 h, within 18 h) was 70%. The “response to IFN-α therapy” value with HCV is recorded as not above 80%. For the same compound, the cell death result was “not detected” in the data set on KUNCD20 cells; “induced cell death in a significant fraction of cells” in the data set with SL1 cells (SL1 and other HeLa derived cell lines, more than 30 IU of IFN-α/ml, between 6 and 20 h post treatment). In the data set on eIF-2α, the eIF-2α-P levels result is reported as “did not induce eIF-2α-P levels”. The figures for the “expression of IFN-β” value in the data set with IFN-β gene (HeLa cells) and with IFN-β gene (SL1 cells) were “not in HeLa cells” and “could be induced”, respectively. The “fraction of apoptotic cells (annexin V-FITC positive)” value in the data set on SL1 cells (SL1 cells, 100 IU of IFN-α/ml, 24 h, flow cytometry) is “more than 30%”. Further, the “IC50 of IFN-α (reduction of virus replication)” value in the data set on HCV subgenomic replicons [3] (HeLa cell lines such as SL1, 72 h) is approximately 0.1 IU/ml. Further, the “fold lower IC50 in HeLa cell lines than in Huh7-derived cell lines” value with HCV subgenomic replicons [3] (HeLa vs Huh7-derived cell lines) was “approximately 10 fold”. Further, in the data set on HeLa cells (normal HeLa cells), the “apoptosis after IFN-α treatment” value is “did not undergo apoptosis”. In addition, in the data set with Kunjin virus replicons, the “Kunjin virus replicon RNA, inhibition of viral replication” value is “only slightly inhibited viral replication”.
Take ZVAD-fluoromethyl ketone [ZVAD-FMK]: the “prevention of IFN-α-induced cell death (apoptosis)” value in the data set on SL1 cells (SL1 cells, 100 IU of IFN-α/ml with 20 μM ZVAD-FMK) was “could be prevented”.
For poly(I:C), the eIF-2α-P levels result with eIF-2α is listed as “augmented eIF-2α-P levels”. Also, in the data set with IFN-β gene (HeLa and SL1 cells, poly(I:C) alone), the IFN-β transcription result was “induced”. For the same compound, the “induction of IFN-β mRNA” value with IFN-β gene (Huh7, GS4.1 and other Huh7-derived cells, primed with IFN-α then transfected with poly(I:C)) is “only a weak induction of IFN-β was observed”.
